{
  "source": "patent US20170027172A1",
  "about": "“USE OF SUBSTITUTE OXO TETRAHYDROQUINOLINE SULFONAMIDES OR SALTS THEREOF FOR RAISING STRESS TOLERANCE OF PLANTS” (BAYER CROPSCIENCE AKTIENGESELLSCHAFT, priority 2014, published 2017)",
  "test_system": "Brassica napus",
  "assay": "Drought stress greenhouse test Part C, visual scoring vs stressed control plants",
  "assay_type": "in vivo",
  "settings": "spray application 25 g/ha, efficacy range of 3-4 pots",
  "method": "Seeds of monocotyledonous and dicotyledonous crop plants were sown in sandy loam in plastic or wood-fiber pots, covered with soil or sand and cultivated in a greenhouse under good growth conditions. The trial plants were treated at the early leaf stage (BBCH10-BBCH13). To assure uniform water supply before commencement of stress, the potted plants were supplied with water by dam irrigation prior to substance application. The inventive compounds were first formulated as wettable powders (WP) or dissolved in a solvent mixture. The further dilution was effected with water supplemented with 0.2% wetting agent (e.g. agrotin). The finished spray liquor was sprayed onto the green parts of the plant at an equivalent water application rate of 600 l/ha. Substance application was followed immediately by stress treatment of the plants. For this purpose, the wood-fiber pots were transferred in plastic inserts in order to prevent them from subsequently drying out too quickly. Drought stress was induced by gradual drying out under the following conditions: “Day”: 14 hours with illumination at 26-30° C. […] Once this juncture had been reached, the appearance of the plants treated with test substances was recorded in comparison to the stressed control plants by the following categories: [table] For each substance and dosage, 3-4 pots were treated and evaluated. […]",
  "data": [
    {"compound": "COC(=O)CCN1C(=O)CCc2cc(NS(=O)(=O)Cc3ccc(F)cc3)ccc21", "note": "[A51-158]", "values": [
      {"measurement": "Effect (BRSNS)", "result": "20-30"}
    ]}
  ]
}
